Experimental data published in ChEMBL document CHEMBL3132769, “Fragment growing to retain or alter the selectivity of anchored kinase hinge-binding fragments” (Medchemcomm, 2014).

What was measured:
[1] = molecular target: T1, Serine/threonine-protein kinase Sgk2 (Homo sapiens) (UniProt Q9HBY8); experiment: Inhibition of human full length SGK2 expressed in baculovirus assessed as substrate phosphorylation using fluorescence-labelled peptides as substrate at 95 uM after 90 mins by microfluidic peptide phosphorylation assay
T1 sequence (whole entry): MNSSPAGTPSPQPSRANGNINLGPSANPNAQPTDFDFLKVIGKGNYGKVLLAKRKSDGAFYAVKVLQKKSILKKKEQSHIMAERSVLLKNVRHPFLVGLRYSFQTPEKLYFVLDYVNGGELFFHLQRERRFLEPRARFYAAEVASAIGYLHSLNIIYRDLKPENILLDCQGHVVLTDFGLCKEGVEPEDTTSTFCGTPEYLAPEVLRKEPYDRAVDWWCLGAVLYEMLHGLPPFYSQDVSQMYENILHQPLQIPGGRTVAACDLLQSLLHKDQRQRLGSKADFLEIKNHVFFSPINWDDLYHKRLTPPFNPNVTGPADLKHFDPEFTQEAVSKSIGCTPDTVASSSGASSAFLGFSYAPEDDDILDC

[2] = molecular target: T2, Serine/threonine-protein kinase D1 (Homo sapiens) (UniProt Q15139); experiment: Inhibition of human full length PKD1 expressed in baculovirus assessed as substrate phosphorylation using fluorescence-labelled peptides as substrate at […] after 90 mins by microfluidic peptide phosphorylation assay
T2 sequence (whole entry): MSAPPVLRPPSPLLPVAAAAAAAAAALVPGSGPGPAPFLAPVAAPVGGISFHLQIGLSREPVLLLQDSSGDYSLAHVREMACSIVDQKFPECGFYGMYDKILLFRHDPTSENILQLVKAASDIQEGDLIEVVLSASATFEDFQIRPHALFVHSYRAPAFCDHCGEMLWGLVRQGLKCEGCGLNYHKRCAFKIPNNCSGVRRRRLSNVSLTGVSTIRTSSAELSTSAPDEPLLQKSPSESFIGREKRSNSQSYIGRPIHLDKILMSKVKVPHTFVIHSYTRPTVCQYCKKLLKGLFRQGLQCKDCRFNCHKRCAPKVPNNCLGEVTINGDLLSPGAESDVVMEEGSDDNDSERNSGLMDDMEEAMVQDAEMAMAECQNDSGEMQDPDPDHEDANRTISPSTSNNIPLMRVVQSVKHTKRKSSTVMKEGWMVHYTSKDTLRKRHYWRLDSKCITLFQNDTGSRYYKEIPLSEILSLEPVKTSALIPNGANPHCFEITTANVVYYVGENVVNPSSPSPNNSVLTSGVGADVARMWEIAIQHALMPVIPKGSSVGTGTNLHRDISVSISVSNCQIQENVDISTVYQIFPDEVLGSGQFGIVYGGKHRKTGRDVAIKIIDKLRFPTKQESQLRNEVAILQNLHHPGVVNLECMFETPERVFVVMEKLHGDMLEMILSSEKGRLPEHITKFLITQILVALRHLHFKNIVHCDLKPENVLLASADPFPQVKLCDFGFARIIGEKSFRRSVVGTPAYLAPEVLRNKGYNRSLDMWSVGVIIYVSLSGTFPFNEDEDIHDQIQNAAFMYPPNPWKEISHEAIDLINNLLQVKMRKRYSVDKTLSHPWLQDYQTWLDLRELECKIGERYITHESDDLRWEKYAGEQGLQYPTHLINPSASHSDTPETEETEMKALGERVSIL

[3] = molecular target: T3, Protein kinase C epsilon type (Homo sapiens) (UniProt Q02156); experiment: Inhibition of human truncated PKC epsilon expressed in baculovirus assessed as substrate phosphorylation using fluorescence-labelled peptides as substrate at 420 uM after 90 mins by microfluidic peptide phosphorylation assay
T3 sequence (whole entry): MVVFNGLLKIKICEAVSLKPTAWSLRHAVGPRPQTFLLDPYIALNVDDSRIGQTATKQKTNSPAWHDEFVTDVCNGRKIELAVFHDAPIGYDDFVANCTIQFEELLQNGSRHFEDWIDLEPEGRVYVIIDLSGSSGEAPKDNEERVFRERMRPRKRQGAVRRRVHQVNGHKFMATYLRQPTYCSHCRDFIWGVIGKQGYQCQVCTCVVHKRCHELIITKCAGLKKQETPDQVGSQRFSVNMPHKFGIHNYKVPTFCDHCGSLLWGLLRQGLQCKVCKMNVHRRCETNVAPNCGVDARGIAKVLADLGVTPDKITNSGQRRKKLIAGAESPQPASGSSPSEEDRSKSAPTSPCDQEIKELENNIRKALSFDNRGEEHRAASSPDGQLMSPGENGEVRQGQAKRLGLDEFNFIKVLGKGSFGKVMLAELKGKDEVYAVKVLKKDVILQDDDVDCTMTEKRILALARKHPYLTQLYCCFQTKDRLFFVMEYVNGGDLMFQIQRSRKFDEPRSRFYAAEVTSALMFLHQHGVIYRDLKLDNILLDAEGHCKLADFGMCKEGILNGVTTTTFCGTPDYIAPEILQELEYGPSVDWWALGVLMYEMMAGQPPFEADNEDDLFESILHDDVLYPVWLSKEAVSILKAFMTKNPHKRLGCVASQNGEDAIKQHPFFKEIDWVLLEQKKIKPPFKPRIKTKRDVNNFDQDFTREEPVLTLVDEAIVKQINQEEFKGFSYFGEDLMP

[4] = molecular target: Casein kinase I isoform alpha (Homo sapiens) (UniProt P48729); experiment: Inhibition of human full length CSNK1A1 expressed in baculovirus assessed as substrate phosphorylation using fluorescence-labelled peptides as substrate at 2 uM after 90 mins by microfluidic peptide phosphorylation assay
Sequence of Casein kinase I isoform alpha (Homo sapiens) (P48729 2-337 limits assumed): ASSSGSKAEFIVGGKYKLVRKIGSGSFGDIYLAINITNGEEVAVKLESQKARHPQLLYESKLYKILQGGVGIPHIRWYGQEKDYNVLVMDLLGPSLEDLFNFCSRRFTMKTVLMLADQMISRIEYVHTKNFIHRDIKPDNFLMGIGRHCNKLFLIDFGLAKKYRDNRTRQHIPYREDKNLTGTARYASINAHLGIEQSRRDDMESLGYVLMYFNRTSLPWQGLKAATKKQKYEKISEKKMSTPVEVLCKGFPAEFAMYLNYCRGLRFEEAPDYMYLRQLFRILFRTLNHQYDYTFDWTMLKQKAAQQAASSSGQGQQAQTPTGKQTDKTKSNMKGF

[5] = molecular target: T4, Aurora kinase C (Homo sapiens) (UniProt Q9UQB9); experiment: Inhibition of human full length AurC expressed in baculovirus assessed as substrate phosphorylation using fluorescence-labelled peptides as substrate at 2 uM after 90 mins by microfluidic peptide phosphorylation assay
T4 sequence (whole entry): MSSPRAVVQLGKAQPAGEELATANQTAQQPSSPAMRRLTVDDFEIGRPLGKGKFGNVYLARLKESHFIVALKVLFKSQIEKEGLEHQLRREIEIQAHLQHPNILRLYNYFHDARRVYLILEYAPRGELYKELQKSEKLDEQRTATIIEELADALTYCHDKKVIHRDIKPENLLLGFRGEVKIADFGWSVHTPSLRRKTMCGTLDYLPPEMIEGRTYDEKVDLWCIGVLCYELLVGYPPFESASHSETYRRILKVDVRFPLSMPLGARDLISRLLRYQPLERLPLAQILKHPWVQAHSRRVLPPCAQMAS

[6] = molecular target: Mitogen-activated protein kinase 3 (Homo sapiens) (UniProt P27361); experiment: Inhibition of human full length ERK1 expressed in Escherichia coli cell assessed as substrate phosphorylation using fluorescence-labelled peptides as substrate at 1000 uM after 90 mins by microfluidic peptide phosphorylation assay
Sequence of Mitogen-activated protein kinase 3 (Homo sapiens) (P27361 whole entry): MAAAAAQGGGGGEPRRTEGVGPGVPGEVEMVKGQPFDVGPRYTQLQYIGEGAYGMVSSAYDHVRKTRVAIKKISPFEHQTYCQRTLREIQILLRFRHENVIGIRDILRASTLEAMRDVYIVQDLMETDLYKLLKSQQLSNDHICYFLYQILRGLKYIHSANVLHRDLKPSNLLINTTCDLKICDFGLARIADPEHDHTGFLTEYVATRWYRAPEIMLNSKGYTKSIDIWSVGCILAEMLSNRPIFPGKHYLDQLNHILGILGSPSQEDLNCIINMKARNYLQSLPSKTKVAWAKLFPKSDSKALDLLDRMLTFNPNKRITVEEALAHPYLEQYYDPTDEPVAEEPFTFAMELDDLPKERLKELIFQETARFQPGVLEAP

NCCc1ccc(-c2ncnc3[nH]cnc23)cc1
inhibition [1]: 50.5%

COC(=O)c1cnc(Nc2cnc(C#N)cn2)cc1NCC1CCNCC1
inhibition [2]: 3%

c1nc(N2CCOCC2)c2nc[nH]c2n1
inhibition [3]: 73.5%

NC1CCN(c2ncnc3[nH]ccc23)CC1
inhibition [4]: 9.5% | inhibition [5]: 13.5%

c1cnc2[nH]ccc2c1
inhibition [6]: 36%
